Reference: US12146004B2, “Polymyxin compounds and uses thereof” (priority 2014, dated 2024)
Converted amounts (≈) assume the structure as drawn. Read-outs that look alike come from different tables or passages of the source.

Tests used:
Assay type in all cases: cell-based
[1] = system: Klebsiella pneumoniae
Method in brief: (§1)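 Strain panels of up to nine per species, with resistant and Polymyxin-tolerant strains included, were used for susceptibility testing; read-out was MIC (μg/mL).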

[2] = system: Acinetobacter baumannii
Method in brief: as §1

[3] = system: Pseudomonas aeruginosa
Method in brief: as §1

[4] = system: Escherichia coli
Method in brief: as §1

CC(C)C[C@@H]1NC(=O)[C@@H](CC2CCCCC2)NC(=O)[C@H](CCN)NC(=O)[C@@H](NC(=O)[C@H](CN)NC(=O)[C@@H](NC(=O)CC(CN)c2ccc(Cl)cc2)C(C)O)CCNC(=O)[C@H]([C@@H](C)O)NC(=O)[C@H](CCN)NC(=O)[C@H](CCN)NC1=O (single isomer, unassigned; isomer 2) [Example 51, 4-amino-3-(4-chlorophenyl) butanoyl L-Thr-L-Dap-polymyxin [D-cyclohexylalanine]-6 heptapeptide. Isomer 2]
MIC K. pneumoniae 065 [1]: 0.25 µg/mL (≈ 0.217 µM) | MIC K. pneumoniae ATCC 13882 [1]: 0.5 µg/mL (≈ 0.434 µM) | MIC A. baumanii ATCC BAA-747 [2]: 0.5 µg/mL (≈ 0.434 µM) | MIC A. baumanii NCTC 13424 [2]: 0.25 µg/mL (≈ 0.217 µM) | MIC P. aeruginosa ATCC 27853 [3]: 0.5 µg/mL (≈ 0.434 µM) | MIC P. aeruginosa CCUG 59347 [3]: 0.5 µg/mL (≈ 0.434 µM) | MIC E. coli 058 [4]: 2 µg/mL (≈ 1.74 µM) | MIC E. coli ATCC 25922 [4]: 0.5 µg/mL (≈ 0.434 µM)

CC(C)C[C@@H]1NC(=O)[C@@H](CC2CCCCC2)NC(=O)[C@H](CCN)NC(=O)[C@@H](NC(=O)[C@H](CCN)NC(=O)[C@@H](NC(=O)C(CN)Cc2ccccc2)C(C)O)CCNC(=O)[C@H]([C@@H](C)O)NC(=O)[C@H](CCN)NC(=O)[C@H](CCN)NC1=O (single isomer, unassigned; isomer 2) [Example 53, 3-amino-2-benzylpropanoyl polymyxin [D-cyclohexylalanine]-6 nonapeptide. Isomer 2]
MIC K. pneumoniae 063 [1]: 64 µg/mL (≈ 56.6 µM) | MIC K. pneumoniae 065 [1]: 4 µg/mL (≈ 3.54 µM) | MIC K. pneumoniae ATCC 13882 [1]: 0.25 µg/mL (≈ 0.221 µM) | MIC A. baumanii 053 [2]: 64 µg/mL (≈ 56.6 µM) | MIC A. baumanii 056 [2]: 64 µg/mL (≈ 56.6 µM) | MIC A. baumanii ATCC BAA-747 [2]: 0.5 µg/mL (≈ 0.442 µM) | MIC A. baumanii NCTC 13424 [2]: 0.5 µg/mL (≈ 0.442 µM) | MIC P. aeruginosa 068 [3]: 8 µg/mL (≈ 7.08 µM) | MIC P. aeruginosa 070 [3]: 8 µg/mL (≈ 7.08 µM) | MIC P. aeruginosa ATCC 27853 [3]: 0.25 µg/mL (≈ 0.221 µM) | MIC P. aeruginosa CCUG 59347 [3]: 0.5 µg/mL (≈ 0.442 µM) | MIC E. coli 058 [4]: 4 µg/mL (≈ 3.54 µM) | MIC E. coli 061 [4]: 32 µg/mL (≈ 28.3 µM) | MIC E. coli ATCC 25922 [4]: 0.25 µg/mL (≈ 0.221 µM) | MIC E. coli NCTC 9001 [4]: 0.125 µg/mL (≈ 0.111 µM)

CC(C)C[C@@H]1NC(=O)[C@@H](CC2CCCCC2)NC(=O)[C@H](CCN)NC(=O)[C@@H](NC(=O)[C@H](CCN)NC(=O)[C@@H](NC(=O)C(CCN)c2ccc(F)cc2)C(C)O)CCNC(=O)[C@H]([C@@H](C)O)NC(=O)[C@H](CCN)NC(=O)[C@H](CCN)NC1=O (single isomer, unassigned; isomer 2) [Example 54, 4-amino-2-(4-fluorophenyl) butanoyl polymyxin [D-cyclohexylalanine]-6 nonapeptide isomer 2]
MIC K. pneumoniae 063 [1]: 32 µg/mL (≈ 27.9 µM) | MIC K. pneumoniae 065 [1]: 1 µg/mL (≈ 0.871 µM) | MIC K. pneumoniae ATCC 13882 [1]: 0.25 µg/mL (≈ 0.218 µM) | MIC A. baumanii 053 [2]: 32 µg/mL (≈ 27.9 µM) | MIC A. baumanii 056 [2]: 8 µg/mL (≈ 6.97 µM) | MIC A. baumanii ATCC BAA-747 [2]: 0.125 µg/mL (≈ 0.109 µM) | MIC A. baumanii NCTC 13424 [2]: 0.25 µg/mL (≈ 0.218 µM) | MIC P. aeruginosa 068 [3]: 4 µg/mL (≈ 3.48 µM) | MIC P. aeruginosa 070 [3]: 4 µg/mL (≈ 3.48 µM) | MIC P. aeruginosa ATCC 27853 [3]: 0.25 µg/mL (≈ 0.218 µM) | MIC P. aeruginosa CCUG 59347 [3]: 0.5 µg/mL (≈ 0.435 µM) | MIC E. coli 058 [4]: 4 µg/mL (≈ 3.48 µM) | MIC E. coli 061 [4]: 16 µg/mL (≈ 13.9 µM) | MIC E. coli ATCC 25922 [4]: 0.125 µg/mL (≈ 0.109 µM) | MIC E. coli NCTC 9001 [4]: 0.06 µg/mL (≈ 0.0522 µM)

CC(C)C[C@@H]1NC(=O)[C@@H](CC2CCCCC2)NC(=O)[C@H](CCN)NC(=O)[C@@H](NC(=O)[C@H](CCN)NC(=O)[C@@H](NC(=O)C(CCN)c2cccc(Cl)c2)[C@@H](C)O)CCNC(=O)[C@H]([C@@H](C)O)NC(=O)[C@H](CCN)NC(=O)[C@H](CCN)NC1=O (single isomer, unassigned; isomer 2) [Example 55, 4-amino-2-(3-chlorophenyl) butanoyl polymyxin [D-cyclohexylalanine]-6 nonapeptide. isomer 2]
MIC K. pneumoniae 063 [1]: 16 µg/mL (≈ 13.7 µM) | MIC K. pneumoniae 065 [1]: 1 µg/mL (≈ 0.858 µM) | MIC K. pneumoniae ATCC 13882 [1]: 0.25 µg/mL (≈ 0.215 µM) | MIC A. baumanii 053 [2]: 8 µg/mL (≈ 6.87 µM) | MIC A. baumanii 056 [2]: 4 µg/mL (≈ 3.43 µM) | MIC A. baumanii ATCC BAA-747 [2]: 0.125 µg/mL (≈ 0.107 µM) | MIC A. baumanii NCTC 13424 [2]: 0.25 µg/mL (≈ 0.215 µM) | MIC P. aeruginosa 068 [3]: 4 µg/mL (≈ 3.43 µM) | MIC P. aeruginosa 070 [3]: 4 µg/mL (≈ 3.43 µM) | MIC P. aeruginosa ATCC 27853 [3]: 0.125 µg/mL (≈ 0.107 µM) | MIC P. aeruginosa CCUG 59347 [3]: 0.5 µg/mL (≈ 0.429 µM) | MIC E. coli 058 [4]: 2 µg/mL (≈ 1.72 µM) | MIC E. coli 061 [4]: 16 µg/mL (≈ 13.7 µM) | MIC E. coli ATCC 25922 [4]: 0.25 µg/mL (≈ 0.215 µM) | MIC E. coli NCTC 9001 [4]: 0.06 µg/mL (≈ 0.0515 µM)

CC(C)C[C@@H]1NC(=O)[C@@H](CC2CCCCC2)NC(=O)[C@H](CCN)NC(=O)[C@@H](NC(=O)[C@H](CCN)NC(=O)[C@@H](NC(=O)CC(CN)c2ccccc2)[C@@H](C)O)CCNC(=O)[C@H]([C@@H](C)O)NC(=O)[C@H](CCN)NC(=O)[C@H](CCN)NC1=O (single isomer, unassigned; isomer 2) [Example 57, 4-amino-3-phenylbutanoyl polymyxin [D-cyclohexylalanine]-6 nonapeptide isomer 2]
MIC K. pneumoniae 065 ([1]; strain 065): 8 µg/mL (≈ 7.08 µM) | MIC K. pneumoniae ATCC 13882 ([1]; strain ATCC 13882): 0.25 µg/mL (≈ 0.221 µM) | MIC A. baumanii ATCC BAA-747 ([2]; strain ATCC BAA-747): 1 µg/mL (≈ 0.885 µM) | MIC A. baumanii NCTC 13424 ([2]; strain NCTC 13424): 1 µg/mL (≈ 0.885 µM) | MIC P. aeruginosa ATCC 27853 ([3]; strain ATCC 27853): 0.25 µg/mL (≈ 0.221 µM) | MIC P. aeruginosa CCUG 59347 ([3]; strain CCUG 59347): 0.5 µg/mL (≈ 0.442 µM) | MIC E. coli 058 ([4]; strain 058): 16 µg/mL (≈ 14.2 µM) | MIC E. coli ATCC 25922 ([4]; strain ATCC 25922): 0.25 µg/mL (≈ 0.221 µM)

CC(C)C[C@@H]1NC(=O)[C@@H](CC2CCCCC2)NC(=O)[C@H](CCN)NC(=O)[C@@H](NC(=O)[C@H](CN)NC(=O)[C@@H](NC(=O)CC(CN)Cc2ccccc2)[C@@H](C)O)CCNC(=O)[C@H]([C@@H](C)O)NC(=O)[C@H](CCN)NC(=O)[C@H](CCN)NC1=O (single isomer, unassigned; isomer 2) [Example 59, 4-amino-3-benzylbutanoyl L-Thr-L-Dap-polymyxin [D-cyclohexylalanine]-6 heptapeptide. Isomer 2]
MIC K. pneumoniae 063 ([1]; strain 063): 32 µg/mL (≈ 28.3 µM) | MIC K. pneumoniae 065 ([1]; strain 065): 2 µg/mL (≈ 1.77 µM) | MIC K. pneumoniae ATCC 4352 ([1]; strain ATCC 4352): 0.125 µg/mL (≈ 0.111 µM) | MIC K. pneumoniae ATCC 13882 ([1]; strain ATCC 13882): 0.25 µg/mL (≈ 0.221 µM) | MIC A. baumanii 053 ([2]; strain 053): 32 µg/mL (≈ 28.3 µM) | MIC A. baumanii 056 ([2]; strain 056): 16 µg/mL (≈ 14.2 µM) | MIC A. baumanii ATCC BAA-747 ([2]; strain ATCC BAA-747): 0.03 µg/mL (≈ 0.0265 µM) | MIC A. baumanii NCTC 13424 ([2]; strain NCTC 13424): 0.06 µg/mL (≈ 0.0531 µM) | MIC P. aeruginosa 068 ([3]; strain 068): 4 µg/mL (≈ 3.54 µM) | MIC P. aeruginosa 070 ([3]; strain 070): 8 µg/mL (≈ 7.08 µM) | MIC P. aeruginosa ATCC 27853 ([3]; strain ATCC 27853): 0.25 µg/mL (≈ 0.221 µM) | MIC P. aeruginosa CCUG 59347 ([3]; strain CCUG 59347): 0.25 µg/mL (≈ 0.221 µM) | MIC E. coli 058 ([4]; strain 058): 2 µg/mL (≈ 1.77 µM) | MIC E. coli ATCC 25922 ([4]; strain ATCC 25922): 0.125 µg/mL (≈ 0.111 µM) | MIC E. coli NCTC 9001 ([4]; strain NCTC 9001): 0.06 µg/mL (≈ 0.0531 µM)

CC(C)C[C@@H]1NC(=O)[C@@H](CC2CCCCC2)NC(=O)[C@H](CCN)NC(=O)[C@@H](NC(=O)[C@H](CN)NC(=O)[C@@H](NC(=O)CCC(N)c2ccccc2)[C@@H](C)O)CCNC(=O)[C@H]([C@@H](C)O)NC(=O)[C@H](CCN)NC(=O)[C@H](CCN)NC1=O (single isomer, unassigned; isomer 2) [Example 61, 4-amino-4-phenylbutanoyl L-Thr-L-Dap-polymyxin [D-cyclohexylalanine]-6 heptapeptide. Isomer 2]
MIC K. pneumoniae 065 [1]: 32 µg/mL (≈ 28.7 µM) | MIC K. pneumoniae ATCC 13882 [1]: 0.25 µg/mL (≈ 0.224 µM) | MIC A. baumanii ATCC BAA-747 [2]: 0.25 µg/mL (≈ 0.224 µM) | MIC A. baumanii NCTC 13424 [2]: 0.25 µg/mL (≈ 0.224 µM) | MIC P. aeruginosa ATCC 27853 [3]: 0.25 µg/mL (≈ 0.224 µM) | MIC P. aeruginosa CCUG 59347 [3]: 0.5 µg/mL (≈ 0.448 µM) | MIC E. coli 058 [4]: 8 µg/mL (≈ 7.17 µM) | MIC E. coli ATCC 25922 [4]: 0.25 µg/mL (≈ 0.224 µM)

CC(C)C[C@@H]1NC(=O)[C@@H](CC2CCCCC2)NC(=O)[C@H](CCN)NC(=O)[C@@H](NC(=O)[C@H](CCN)NC(=O)[C@@H](NC(=O)C(CCN)c2ccccc2)[C@@H](C)O)CCNC(=O)[C@H]([C@@H](C)O)NC(=O)[C@H](CCN)NC(=O)[C@H](CCN)NC1=O (single isomer, unassigned; isomer 2) [Example 64, 4-amino-2-phenylbutanoyl polymyxin [D-cyclohexylalanine]-6 nonapeptide isomer 2]
MIC K. pneumoniae 063 [1]: 64 µg/mL (≈ 56.6 µM) | MIC K. pneumoniae 065 [1]: 4 µg/mL (≈ 3.54 µM) | MIC K. pneumoniae ATCC 13882 [1]: 0.25 µg/mL (≈ 0.221 µM) | MIC A. baumanii 053 [2]: 32 µg/mL (≈ 28.3 µM) | MIC A. baumanii 056 [2]: 32 µg/mL (≈ 28.3 µM) | MIC A. baumanii ATCC BAA-747 [2]: 0.125 µg/mL (≈ 0.111 µM) | MIC A. baumanii NCTC 13424 [2]: 0.25 µg/mL (≈ 0.221 µM) | MIC P. aeruginosa 068 [3]: 8 µg/mL (≈ 7.08 µM) | MIC P. aeruginosa 070 [3]: 16 µg/mL (≈ 14.2 µM) | MIC P. aeruginosa ATCC 27853 [3]: 0.25 µg/mL (≈ 0.221 µM) | MIC P. aeruginosa CCUG 59347 [3]: 0.25 µg/mL (≈ 0.221 µM) | MIC E. coli 058 [4]: 8 µg/mL (≈ 7.08 µM) | MIC E. coli 061 [4]: 32 µg/mL (≈ 28.3 µM) | MIC E. coli ATCC 25922 [4]: 0.125 µg/mL (≈ 0.111 µM)
